Test results taken from ChEMBL document CHEMBL5029199, “Increased Molecular Flexibility Widens the Gap between K i and K d values in Screening for Retinoid X Receptor Modulators” (ACS Med Chem Lett, 2022).
Calls of active or inactive are those of the source. The calls are words filed in the database; no cut-off is given here.

What was measured:
[1] = target: T1, Retinoic acid receptor RXR-alpha (Homo sapiens, UniProt P19793); experiment: Antagonist activity at human RXR-alpha expressed in African green monkey COS-1 cells assessed as reduction in NEt-TMN-induced receptor transactivation at 1 uM by luciferase reporter gene assay; assay type: cell-based; conditions: read-out: pA2 (converted)
T1 sequence (P19793 whole entry): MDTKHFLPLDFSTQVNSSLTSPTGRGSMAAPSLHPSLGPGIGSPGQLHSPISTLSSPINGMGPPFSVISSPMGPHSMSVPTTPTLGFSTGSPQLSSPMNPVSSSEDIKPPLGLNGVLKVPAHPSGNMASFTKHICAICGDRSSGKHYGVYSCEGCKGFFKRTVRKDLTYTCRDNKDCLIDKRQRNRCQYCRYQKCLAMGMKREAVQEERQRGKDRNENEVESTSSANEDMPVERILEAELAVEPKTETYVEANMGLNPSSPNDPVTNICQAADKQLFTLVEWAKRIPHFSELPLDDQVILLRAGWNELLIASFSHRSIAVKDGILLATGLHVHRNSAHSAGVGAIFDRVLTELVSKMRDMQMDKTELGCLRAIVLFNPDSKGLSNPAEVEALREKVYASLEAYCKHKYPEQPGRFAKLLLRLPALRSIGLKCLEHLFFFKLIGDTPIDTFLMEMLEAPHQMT

[2] = target: T1, Retinoic acid receptor RXR-alpha; experiment: Antagonist activity at human RXR-alpha expressed in African green monkey COS-1 cells assessed as reduction in bexarotene-induced receptor transactivation at 1 uM by luciferase reporter gene assay; assay type: cell-based; conditions: read-out: pA2 (converted)
[3] = target: T1, Retinoic acid receptor RXR-alpha; experiment: Displacement of NEt-C343 from human RXRalpha-LBD expressed in African green monkey COS-1 cells assessed as inhibition constant incubated for 2 hrs by competitive binding assay; assay type: cell-based
[4] = Drug uptake in African green monkey COS-1 cells at 10 uM measured after 24 hrs by trypan blue staining based LC-MS/MS analysis; assay type: ADME, cell-based; conditions: chlorocebus aethiops, cos-1, 24 h
[5] = organism: Homo sapiens; experiment: Ratio of Ki for displacement of NEt-C343 from human RXRalpha-LBD expressed in African green monkey COS-1 cells to Kd for binding affinity to human RXRalpha-LBD expressed in African green monkey COS-1 cells; assay type: cell-based
[6] = target: T1, Retinoic acid receptor RXR-alpha; experiment: Binding affinity to human RXRalpha-LBD expressed in African green monkey COS-1 cells assessed as dissociated constant incubated for 2 hrs by tryptophan fluorescence quenching assay; assay type: cell-based
[7] = target: T2, Retinoic acid receptor RXR-alpha (Homo sapiens) (UniProt P19793); experiment: Antagonist activity at human RXR-alpha expressed in African green monkey COS-1 cells assessed as reduction in NEt-TMN-induced receptor transactivation by measuring shift in concentration-response curve at 1 uM by luciferase reporter gene assay
T2 sequence (whole entry): T1 sequence (P19793 whole entry)

SMILES	Kb [1] [nM]	Kb [2] [nM]	Ki [3] [nM]	Drug uptake [4] [pg/10^4 cells]	Ratio [5]	Kd [6] [nM]	Activity [7]
CCCCCOc1cc2c(cc1-n1c(C(F)(F)F)nc3cc(C(=O)O)ccc31)C(C)(C)CCC2(C)C	26.3	8.71	384	14.8	1.39	277	–
CCCCCCOc1cc2c(cc1-n1c(C(F)(F)F)nc3cc(C(=O)O)ccc31)C(C)(C)CCC2(C)C	–	–	–	55.1	–	–	–
CCCCCOc1cc2c(cc1-n1nnc3cc(C(=O)O)ccc31)C(C)(C)CCC2(C)C	–	–	3540	10.2	4.63	764	inactive
CCCCCCOc1cc2c(cc1-n1nnc3cc(C(=O)O)ccc31)C(C)(C)CCC2(C)C	–	–	3160	81.6	4.48	705	inactive
